# Measurements: ChEMBL document CHEMBL1140240, “Glutamic acid analogues as potent dipeptidyl peptidase IV and 8 inhibitors” (Bioorg Med Chem Lett, 2005)
# Target: Dipeptidyl peptidase 4 (Homo sapiens, UniProt P27487)
# Sequence (P27487 whole entry): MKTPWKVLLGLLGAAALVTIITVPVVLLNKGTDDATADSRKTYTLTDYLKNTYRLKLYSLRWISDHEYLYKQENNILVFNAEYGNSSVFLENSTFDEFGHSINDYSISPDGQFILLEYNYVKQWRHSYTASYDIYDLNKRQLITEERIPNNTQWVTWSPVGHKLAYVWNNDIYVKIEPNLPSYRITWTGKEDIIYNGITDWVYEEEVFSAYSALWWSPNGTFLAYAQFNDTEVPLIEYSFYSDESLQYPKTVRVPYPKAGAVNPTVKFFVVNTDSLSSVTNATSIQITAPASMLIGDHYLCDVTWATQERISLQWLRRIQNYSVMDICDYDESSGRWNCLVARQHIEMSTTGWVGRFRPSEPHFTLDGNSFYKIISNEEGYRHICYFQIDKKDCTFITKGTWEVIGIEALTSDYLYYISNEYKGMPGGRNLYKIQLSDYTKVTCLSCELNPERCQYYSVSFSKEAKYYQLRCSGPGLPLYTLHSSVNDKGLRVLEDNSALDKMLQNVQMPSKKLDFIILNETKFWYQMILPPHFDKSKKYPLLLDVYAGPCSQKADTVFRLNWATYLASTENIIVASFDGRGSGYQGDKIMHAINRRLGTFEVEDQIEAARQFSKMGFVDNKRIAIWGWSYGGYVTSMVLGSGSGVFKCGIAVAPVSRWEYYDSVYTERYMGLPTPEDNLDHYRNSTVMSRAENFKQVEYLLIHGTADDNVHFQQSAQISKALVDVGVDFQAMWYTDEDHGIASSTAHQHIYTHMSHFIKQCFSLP
row,IC50,Compound
1,47 nM,COc1cc2c(cc1OC)C(C(C)C)N(C(=O)C[C@H](N)C(=O)N1CCC[C@H]1C#N)CC2 (stereo not given in full)
2,97 nM,COc1cc2c(cc1OC)C(Cc1ccccc1)N(C(=O)C[C@H](N)C(=O)N1CCC[C@H]1C#N)CC2 (stereo not given in full)
3,140 nM,CCC(NC(=O)C[C@H](N)C(=O)N1CCC[C@H]1C#N)c1ccccc1 (stereo not given in full)
4,73 nM,COc1cc2c(cc1OC)C(C(C)(C)C)N(C(=O)C[C@H](N)C(=O)N1CCC[C@H]1C#N)CC2 (stereo not given in full)
5,212 nM,CC(C)C(NC(=O)C[C@H](N)C(=O)N1CCC[C@H]1C#N)c1ccccc1 (stereo not given in full)
6,305 nM,CC(C)C(Cc1ccccc1)NC(=O)C[C@H](N)C(=O)N1CCC[C@H]1C#N (stereo not given in full)
7,227 nM,N#C[C@@H]1CCCN1C(=O)[C@@H](N)CC(=O)N1CCN(C(c2ccc(F)cc2)c2ccc(F)cc2)CC1
8,252 nM,N#C[C@@H]1CCCN1C(=O)[C@@H](N)CC(=O)NC(Cc1ccccc1)c1ccccc1 (stereo not given in full)
9,63 nM,COc1cc2c(cc1OC)CN(C(=O)C[C@H](N)C(=O)N1CCC[C@H]1C#N)CC2
10,238 nM,N#C[C@@H]1CCCN1C(=O)[C@@H](N)CC(=O)NCc1ccccc1
11,116 nM,COc1ccc(CCNC(=O)C[C@H](N)C(=O)N2CCC[C@H]2C#N)cc1OC
12,99 nM,N#C[C@@H]1CCCN1C(=O)[C@@H](N)CC(=O)N1CCc2ccccc2C1
13,182 nM,COCC(Cc1ccccc1)NC(=O)C[C@H](N)C(=O)N1CCC[C@H]1C#N (stereo not given in full)
14,251 nM,CC(C)(C)C(NC(=O)C[C@H](N)C(=O)N1CCC[C@H]1C#N)c1ccccc1 (stereo not given in full)
15,87 nM,N#Cc1ccc[n+](N2CCN(C(=O)C[C@H](N)C(=O)N3CCC[C@H]3C#N)CC2)c1
16,72 nM,COc1ccc2c(c1)CCN(C(=O)C[C@H](N)C(=O)N1CCC[C@H]1C#N)C2C(C)(C)C (stereo not given in full)
17,123 nM,N#C[C@@H]1CCCN1C(=O)[C@@H](N)CC(=O)N1CCN(C(=O)c2ccccc2)CC1
18,45 nM,COc1cc2c(cc1OC)C(CCO)N(C(=O)C[C@H](N)C(=O)N1CCC[C@H]1C#N)CC2 (stereo not given in full)
19,195 nM,COc1ccc2c(c1)C(C(C)(C)C)N(C(=O)C[C@H](N)C(=O)N1CCC[C@H]1C#N)CC2 (stereo not given in full)

# Target: Dipeptidyl peptidase 2 (Homo sapiens, UniProt Q9UHL4)
# Experiment: Inhibitory concentration against DPP-II [Quiescent cell proline dipeptidase] or DPP-VII
row,IC50,Compound
1,31300 nM,COc1cc2c(cc1OC)CN(C(=O)C[C@H](N)C(=O)N1CCC[C@H]1C#N)CC2
